{
  "source": "PubChem BioAssay (NCI)",
  "test_in_all_cases": "NCI anticancer screen, dose series, 48 h",
  "key": {"786-0 renal": {"system": "786-0 renal"}, "A498 renal": {"system": "A498 renal"}, "A549 NSCLC": {"system": "A549 NSCLC"}, "ACHN renal": {"system": "ACHN renal"}, "BT-549 breast": {"system": "BT-549 breast"}, "CAKI-1 renal": {"system": "CAKI-1 renal"}, "CCRF-CEM leukemia": {"system": "CCRF-CEM leukemia"}, "COLO 205 colon": {"system": "COLO 205 colon"}, "DU-145 prostate": {"system": "DU-145 prostate"}, "HCC-2998 colon": {"system": "HCC-2998 colon"}, "HCT-116 colon": {"system": "HCT-116 colon"}, "HCT-15 colon": {"system": "HCT-15 colon"}, "HL-60(TB) leukemia": {"system": "HL-60(TB) leukemia"}, "HOP-62 NSCLC": {"system": "HOP-62 NSCLC"}, "HOP-92 NSCLC": {"system": "HOP-92 NSCLC"}, "HS 578T breast": {"system": "HS 578T breast"}, "HT29 colon": {"system": "HT29 colon"}, "IGROV1 ovarian": {"system": "IGROV1 ovarian"}, "K-562 leukemia": {"system": "K-562 leukemia"}, "KM12 colon": {"system": "KM12 colon"}, "LOX IMVI melanoma": {"system": "LOX IMVI melanoma"}, "M14 melanoma": {"system": "M14 melanoma"}, "MALME-3M melanoma": {"system": "MALME-3M melanoma"}, "MCF7 breast": {"system": "MCF7 breast"}, "MDA-MB-435": {"system": "MDA-MB-435"}, "MOLT-4 leukemia": {"system": "MOLT-4 leukemia"}, "NCI-H226 lung": {"system": "NCI-H226 lung"}, "NCI-H23 lung": {"system": "NCI-H23 lung"}},
  "note": "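In this assay, cells in 96-well plates receive the compound at five concentrations for 48 hours. Endpoints are linearly interpolated between the surrounding concentrations. GI50 marks 50% less growth. The concentration for full growth arrest is given as TGI.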",
  "data": [
    {"molecule": "Cc1ccc2c(n1)C(=O)C(Cl)=C(Nc1cccc(C(F)(F)F)c1)C2=O", "values": [
      {"measurement": "GI50", "setting": "786-0 renal", "value": 1.8, "unit": "µM"},
      {"measurement": "TGI", "setting": "786-0 renal", "value": 3.55, "unit": "µM"},
      {"measurement": "GI50", "setting": "A498 renal", "value": 13.8, "unit": "µM"},
      {"measurement": "TGI", "setting": "A498 renal", "value": 27.9, "unit": "µM"},
      {"measurement": "GI50", "setting": "A549 NSCLC", "value": 20.1, "unit": "µM"},
      {"measurement": "TGI", "setting": "A549 NSCLC", "value": 50, "unit": "µM"},
      {"measurement": "GI50", "setting": "ACHN renal", "value": 1.78, "unit": "µM"},
      {"measurement": "TGI", "setting": "ACHN renal", "value": 3.31, "unit": "µM"},
      {"measurement": "GI50", "setting": "BT-549 breast", "value": 2.16, "unit": "µM"},
      {"measurement": "TGI", "setting": "BT-549 breast", "value": 5.47, "unit": "µM"},
      {"measurement": "GI50", "setting": "CAKI-1 renal", "value": 1.58, "unit": "µM"},
      {"measurement": "TGI", "setting": "CAKI-1 renal", "value": 3.01, "unit": "µM"},
      {"measurement": "GI50", "setting": "CCRF-CEM leukemia", "value": 1.46, "unit": "µM"},
      {"measurement": "TGI", "setting": "CCRF-CEM leukemia", "value": 4.71, "unit": "µM"},
      {"measurement": "GI50", "setting": "COLO 205 colon", "value": 1.82, "unit": "µM"},
      {"measurement": "TGI", "setting": "COLO 205 colon", "value": 3.78, "unit": "µM"},
      {"measurement": "GI50", "setting": "DU-145 prostate", "value": 1.8, "unit": "µM"},
      {"measurement": "TGI", "setting": "DU-145 prostate", "value": 3.31, "unit": "µM"},
      {"measurement": "GI50", "setting": "HCC-2998 colon", "value": 2.6, "unit": "µM"},
      {"measurement": "TGI", "setting": "HCC-2998 colon", "value": 6.48, "unit": "µM"},
      {"measurement": "GI50", "setting": "HCT-116 colon", "value": 1.51, "unit": "µM"},
      {"measurement": "TGI", "setting": "HCT-116 colon", "value": 3.22, "unit": "µM"},
      {"measurement": "GI50", "setting": "HCT-15 colon", "value": 1.66, "unit": "µM"},
      {"measurement": "TGI", "setting": "HCT-15 colon", "value": 3.55, "unit": "µM"},
      {"measurement": "GI50", "setting": "HL-60(TB) leukemia", "value": 1.5, "unit": "µM"},
      {"measurement": "TGI", "setting": "HL-60(TB) leukemia", "value": 3.68, "unit": "µM"},
      {"measurement": "GI50", "setting": "HOP-62 NSCLC", "value": 17, "unit": "µM"},
      {"measurement": "TGI", "setting": "HOP-62 NSCLC", "value": 31.8, "unit": "µM"},
      {"measurement": "GI50", "setting": "HOP-92 NSCLC", "value": 1.91, "unit": "µM"},
      {"measurement": "TGI", "setting": "HOP-92 NSCLC", "value": 3.89, "unit": "µM"},
      {"measurement": "GI50", "setting": "HS 578T breast", "value": 15.1, "unit": "µM"},
      {"measurement": "TGI", "setting": "HS 578T breast", "value": 85.6, "unit": "µM"},
      {"measurement": "GI50", "setting": "HT29 colon", "value": 2.6, "unit": "µM"},
      {"measurement": "TGI", "setting": "HT29 colon", "value": 6.63, "unit": "µM"},
      {"measurement": "GI50", "setting": "IGROV1 ovarian", "value": 1.87, "unit": "µM"},
      {"measurement": "TGI", "setting": "IGROV1 ovarian", "value": 3.6, "unit": "µM"},
      {"measurement": "GI50", "setting": "K-562 leukemia", "value": 0.31, "unit": "µM"},
      {"measurement": "TGI", "setting": "K-562 leukemia", "value": 1.3, "unit": "µM"},
      {"measurement": "GI50", "setting": "KM12 colon", "value": 15.9, "unit": "µM"},
      {"measurement": "TGI", "setting": "KM12 colon", "value": 32.3, "unit": "µM"},
      {"measurement": "GI50", "setting": "LOX IMVI melanoma", "value": 1.51, "unit": "µM"},
      {"measurement": "TGI", "setting": "LOX IMVI melanoma", "value": 3.33, "unit": "µM"},
      {"measurement": "GI50", "setting": "M14 melanoma", "value": 1.92, "unit": "µM"},
      {"measurement": "TGI", "setting": "M14 melanoma", "value": 4.39, "unit": "µM"},
      {"measurement": "GI50", "setting": "MALME-3M melanoma", "value": 1.79, "unit": "µM"},
      {"measurement": "TGI", "setting": "MALME-3M melanoma", "value": 3.61, "unit": "µM"},
      {"measurement": "GI50", "setting": "MCF7 breast", "value": 1.85, "unit": "µM"},
      {"measurement": "TGI", "setting": "MCF7 breast", "value": 4.66, "unit": "µM"},
      {"measurement": "GI50", "setting": "MDA-MB-435", "value": 1.95, "unit": "µM"},
      {"measurement": "TGI", "setting": "MDA-MB-435", "value": 3.91, "unit": "µM"},
      {"measurement": "GI50", "setting": "MOLT-4 leukemia", "value": 1.69, "unit": "µM"},
      {"measurement": "TGI", "setting": "MOLT-4 leukemia", "value": 5.38, "unit": "µM"},
      {"measurement": "GI50", "setting": "NCI-H226 lung", "value": 2.57, "unit": "µM"},
      {"measurement": "TGI", "setting": "NCI-H226 lung", "value": 11.5, "unit": "µM"},
      {"measurement": "GI50", "setting": "NCI-H23 lung", "value": 1.82, "unit": "µM"},
      {"measurement": "TGI", "setting": "NCI-H23 lung", "value": 4.67, "unit": "µM"}
    ]}
  ]
}
